Assay results taken from ChEMBL document CHEMBL1153006, “Synthesis, NMR characterization and in vitro antitumor evaluation of new aminophosphonic acid diesters” (Eur J Med Chem, 2009).

Assays:
Type in all cases: functional, cell-based
HL-60 [1] = experiment: Cytotoxicity against multidrug-resistant human HL60 cells overexpressing in MRP-1 after 72 hrs by MTT assay; conditions: HL-60, 72 h
K562 = experiment: Cytotoxicity against human K562 cells after 72 hrs by MTT assay; conditions: K562, 72 h
LAMA-84 = experiment: Cytotoxicity against human LAMA-84 cells after 72 hrs by MTT assay; conditions: LAMA-84, 72 h
HL-60 [2] = experiment: Cytotoxicity against human HL60 cells after 72 hrs by MTT assay; conditions: HL-60, 72 h

| Structure (SMILES) | IC50 (HL-60 [1]) | IC50 (K562) | IC50 (LAMA-84) | IC50 (HL-60 [2]) |
| --- | --- | --- | --- | --- |
| Cc1ccc(/N=C\c2ccc(N(C)C)cc2)cc1 | 226 µM | 213 µM | 252 µM | > 400 µM |
| Cc1ccc(/N=C\c2ccco2)cc1 [N-FURFURYLIDENE-P-TOLUIDINE] | 68.6 µM | 29.9 µM | 39.9 µM | > 400 µM |
| CCOP(=O)(OCC)C(Nc1ccc(C)cc1)c1ccc(N(C)C)cc1 (stereo unspecified) | 107 µM | 42.4 µM | 119 µM | > 400 µM |
| CCOP(=O)(OCC)C(NCCCN(C)C)c1ccco1 (stereo unspecified) | 190 µM | 353 µM | > 400 µM | 163 µM |
